According to PMC12700550, “DLL4^+ neutrophils promote Notch1-mediated endothelial PANoptosis to exacerbate acute lung injury in sepsis” (The Journal of Clinical Investigation, 2025):
Where “and” joins values, the source holds several entries; their conditions need not be identical. Equal entries are not always repeated.

Key:
Format in all cases: in vivo, mouse
C57BL/6 mice, CLP sepsis [1] = experiment: Lung injury score (H&E), CLP mice; conditions: 20 h; for lung injury score (Figure 6J): 10 mg/kg NDI, score 0 to 1, individual values
Protocol: Sepsis was induced in mice by cecal ligation and puncture (CLP) as described previously ([45], [46]). Mice were anesthetized with isoflurane to a surgical plane and placed in a supine position. CLP was performed through a midline laparotomy. The abdomen was shaved and disinfected. Through a 2 cm midline incision, the cecum was exposed and then ligated with a 4-0 silk suture 1 cm proximal from the distal cecal extremity. […] A small amount of cecal content was extruded through both holes, and the ligated cecum was returned to the peritoneal cavity. The wound was closed in layers. […] A small amount of cecal content was extruded. […] Vehicle groups received an equivalent volume of PBS, while treatment groups received NDI 10 mg/kg in […] PBS via retro-orbital injection after CLP. This dose was chosen primarily on the basis of our laboratory’s prior experience, we have consistently used this dose in mouse CLP models with reproducible efficacy and without observable toxicity ([39], [44]). Sham-operated animals underwent a laparotomy without CLP. After closure, the mice received a subcutaneous injection of 0.5 mL of normal saline to overcome surgery-induced dehydration. […] All mice were subcutaneously injected with a single dose of 0.1 mg/kg buprenorphine after CLP. Lung tissues were fixed in 10% formalin before being embedded in paraffin. Blocks were cut into 5 μm sections and stained with H&E. Slides were evaluated under light microscopy to assess the degree of lung injury. Scoring was done using a system created by the American Thoracic Society ([47]). Scores ranged from 0 to 1 and were based on proteinaceous debris in the airspaces, the degree of septal thickening, and neutrophil infiltration in the alveolar and interstitial spaces. The average score per field was calculated at ×200 original magnification.

C57BL/6 mice, CLP sepsis [2] = experiment: Evans blue dye lung extravasation, CLP mice; conditions: 20 h; for Evans blue dye, EBD/dry lung tissue (Figure 6L): 10 mg/kg NDI, EBD 20 mg/kg, individual mice
Protocol: Sepsis was induced in mice by cecal ligation and puncture (CLP) as described previously ([45], [46]). Mice were anesthetized with isoflurane to a surgical plane and placed in a supine position. CLP was performed through a midline laparotomy. The abdomen was shaved and disinfected. Through a 2 cm midline incision, the cecum was exposed and then ligated with a 4-0 silk suture 1 cm proximal from the distal cecal extremity. […] A small amount of cecal content was extruded through both holes, and the ligated cecum was returned to the peritoneal cavity. The wound was closed in layers. […] A small amount of cecal content was extruded. […] Vehicle groups received an equivalent volume of PBS, while treatment groups received NDI 10 mg/kg in […] PBS via retro-orbital injection after CLP. This dose was chosen primarily on the basis of our laboratory’s prior experience, we have consistently used this dose in mouse CLP models with reproducible efficacy and without observable toxicity ([39], [44]). Sham-operated animals underwent a laparotomy without CLP. After closure, the mice received a subcutaneous injection of 0.5 mL of normal saline to overcome surgery-induced dehydration. […] All mice were subcutaneously injected with a single dose of 0.1 mg/kg buprenorphine after CLP. Lung vascular leakage was quantified using the Evans blue dye–labeled (EBD-labeled) albumin extravasation assay ([48]). […] Sigma-Aldrich) via retro-orbital injection. […] The whole lung was dehydrated for 48 hours at 60°C, immersed in formamide (1 mL/g wet weight; Sigma-Aldrich) at 37°C for 48 hours, and centrifuged at 5,000g for 30 minutes. The amount of extracted EBD in the supernatant was quantified by spectrophotometry. The concentration of extravasated EBD-albumin in lung homogenates was expressed as nanograms EBD per milligram of dry lung tissue. Lung water content was calculated as (wet weight – dry weight)/wet weight %.

c-caspase-3 = experiment: c/t caspase-3 in lungs of CLP mice, Western blot; conditions: 10 mg/kg NDI, 20 h; for lung c/t caspase-3 (Figure 5E): individual mice, 10 mg/kg
Protocol: Sepsis was induced in mice by cecal ligation and puncture (CLP) as described previously ([45], [46]). Mice were anesthetized with isoflurane to a surgical plane and placed in a supine position. CLP was performed through a midline laparotomy. The abdomen was shaved and disinfected. Through a 2 cm midline incision, the cecum was exposed and then ligated with a 4-0 silk suture 1 cm proximal from the distal cecal extremity. For 20-hour CLP experiments, the cecum was punctured twice with a 22-gauge needle. A small amount of cecal content was extruded through both holes, and the ligated cecum was returned to the peritoneal cavity. The wound was closed in layers. For 10-day sepsis survival studies, the cecum was punctured once with a 22-gauge needle. A small amount of cecal content was extruded. Mice were allocated to the vehicle and adoptive transfer of DLL4^+ neutrophils or DLL4^– neutrophils groups. […] Vehicle groups received an equivalent volume of PBS, while treatment groups received NDI 10 mg/kg in […] PBS via retro-orbital injection after CLP. This dose was chosen primarily on the basis of our laboratory’s prior experience, we have consistently used this dose in mouse CLP models with reproducible efficacy and without observable toxicity ([39], [44]). Sham-operated animals underwent a laparotomy without CLP. After closure, the mice received a subcutaneous injection of 0.5 mL of normal saline to overcome surgery-induced dehydration. For 20-hour experiments, animals were not injected with antibiotics; however, for survival studies, animals were given 0.5 mg per kg body weight imipenem (lot 4D21K05, WG Critical Care LLC) subcutaneously in 0.5 mL saline once at the end of CLP. All mice were subcutaneously injected with a single dose of 0.1 mg/kg buprenorphine after CLP.
PVECs and lung tissue were collected in previous steps. Whole-cell proteins were extracted, and the protein concentration was measured using an ABC protein assay kit (catalog 5000002, Bio-Rad). […] Bands were detected using an Odyssey FC Dual-Mode Imaging system 2800 (LI-COR).

[3] = DLL4^+ neutrophil-injected CLP mice, 10 mg/kg

ECAGSPCHNGGTCEDGI [NDI]
effect on lung injury (C57BL/6 mice, CLP sepsis [1]; [3]): significantly lower lung injury scores | lung injury score (Figure 6J) (C57BL/6 mice, CLP sepsis [1]; DLL4^+ neutrophils + CLP): 0.52 and 0.49 and 0.54 and 0.51 and 0.53 | lung injury score (Figure 6J) (C57BL/6 mice, CLP sepsis [1]; DLL4^– neutrophils + CLP): 0.58 and 0.44 and 0.52 and 0.48 and 0.54 | effect on Evans blue dye content (C57BL/6 mice, CLP sepsis [2]; [3]): significantly attenuated these effects, reducing both lung water content and Evans blue dye content | Evans blue dye, EBD/dry lung tissue (Figure 6L) (C57BL/6 mice, CLP sepsis [2]; DLL4^+ neutrophils + CLP): 94.3739 nanograms EBD per milligram of dry lung tissue and 81.6499 nanograms EBD per milligram of dry lung tissue and 102.841 nanograms EBD per milligram of dry lung tissue and 95.8364 nanograms EBD per milligram of dry lung tissue and 67.7799 nanograms EBD per milligram of dry lung tissue and 56.8397 nanograms EBD per milligram of dry lung tissue and 66.2061 nanograms EBD per milligram of dry lung tissue and 49.7845 nanograms EBD per milligram of dry lung tissue and 71.2396 nanograms EBD per milligram of dry lung tissue | Evans blue dye, EBD/dry lung tissue (Figure 6L) (C57BL/6 mice, CLP sepsis [2]; DLL4^– neutrophils + CLP): 62.3234 nanograms EBD per milligram of dry lung tissue and 74.8524 nanograms EBD per milligram of dry lung tissue and 79.6398 nanograms EBD per milligram of dry lung tissue and 73.406 nanograms EBD per milligram of dry lung tissue and 63.9328 nanograms EBD per milligram of dry lung tissue and 50.0167 nanograms EBD per milligram of dry lung tissue and 66.1099 nanograms EBD per milligram of dry lung tissue and 61.0318 nanograms EBD per milligram of dry lung tissue and 57.5122 nanograms EBD per milligram of dry lung tissue | lung c/t caspase-3 (Figure 5E) (c-caspase-3; DLL4^+ neutrophils + CLP): 0.946 and 0.8954 and 1.049 and 0.8952 and 1.09 and 1.113 and 0.9785 and 0.9235 and 1.192 | effect on lung c-caspase-3 (c-caspase-3; DLL4^+ neutrophils/sepsis): attenuated the expression/activation | lung c/t caspase-3 (Figure 5E) (c-caspase-3; DLL4^– neutrophils + CLP): 1.224 and 1.151 and 0.8027 and 0.9965 and 0.8798 and 1.281
